Data on two compounds can be found in patent publication US12152139B2, “Composition, film, optical filter, laminate, solid-state imaging element, image display device, and infrared sensor” (FUJIFILM Corporation, priority 2018, dated 2024).

The data set can be described thus: Solubility in propylene glycol methyl ether acetate. In kind it is physicochemical. Conditions: organic solvent or mixture, thermodynamic from solid, at 25° C., read-out: solubility in propylene glycol methyl ether acetate (compound (1)). How it is done:
<Measurement of Solubility of Near Infrared Absorbing Pigment and Compound (1)>
Under atmospheric pressure, 99 to 101 g of a sample (precisely weighed value is defined as X g) was added to 1 L of propylene glycol methyl ether acetate at 25° C., and the mixture was stirred for 30 minutes. Next, the mixture was allowed to stand for 5 minutes and filtered, and the […] was dried under reduced pressure at 80° C. for 2 hours and weighed precisely (precisely weighed value is defined as Y g). Solubility of the sample dissolved in propylene glycol methyl ether acetate was calculated from the following expression. Solubility (g/L)=X−Y <Method for Quantifying Amine Compound in Composition>

In brackets after ≈: the same amount, converted by molar mass.

Take `O=c1c2ccccc2[nH]c2cc3c(=O)c4ccccc4n(CCCCS(=O)(=O)O)c3cc12` [Example P3]: the solubility at 30 min is ≥ 500 µg/mL.

With `O=C1C(=C2C(O)=CC(N(c3ccc(S(=O)(=O)O)cc3)c3ccc(S(=O)(=O)O)cc3)C=C2O)C(O)=C1c1c(O)cc(N(c2ccc(S(=O)(=O)O)cc2)c2ccc(S(=O)(=O)O)cc2)cc1O` (centres unmarked) [Example P2], the solubility at 30 min lay in the range of 100 to 500 µg/mL (≈ 105 to 524 µM).

For orientation: solubility means how much of the substance goes into solution per volume.
